Assay results from US20220143003A1, “COMPOSITIONS AND METHODS TO TREAT NON-ALCOHOLIC FATTY LIVER DISEASES (NAFLD)” (Coherus Biosciences, Inc., priority 2018, published 2022).

Key:
Assay type in all cases: in vivo, male C57BL/6JRj mice
DIO-NASH mice [1] = assay: Liver total cholesterol (TC) at termination; settings: group mean
Protocol: (§1) The liver post-biopsy for histological analyses was removed by dissection from the left lateral lobe, fixated in 4% formalin for 20-24 h, and subsequently embedded in paraffin. Liver biopsies for liver triglycerides and total cholesterol were dissected from the medial lobe, snap frozen in liquid nitrogen, and stored at −80° C., while liver biopsies for hydroxyproline were dissected from the caudal lobe (the entire lobe), snap frozen in liquid nitrogen and stored at −80° C. Finally, a liver sample for RNA isolation and gene expression analysis was dissected from the left lateral lobe, snap frozen in liquid nitrogen, and stored at −80° C. until processing.
For liver TG and TC quantification, samples were homogenized, and TG and TC extracted in 5% NP-40 by heating twice to 90° C. The samples were centrifuged, and the TG and TC content measured in the supernatant, using commercial kits (Roche Diagnostics) on the Cobas c501 autoanalyzer according to the manufacturer's instructions.
Relative (mg/g of liver) liver total cholesterol (TC) at termination. Values expressed as mean of n=12-14+SEM.
Total (mg/liver) liver total cholesterol (TC) at termination. Values expressed as mean of […]+SEM.

DIO-NASH mice [2] = assay: Liver hydroxyproline (HP) at termination, colorimetric assay; settings: for Relative liver hydroxyproline (HP) at termination / Total liver hydroxyproline (HP) at termination: group mean
Protocol: as §1
For liver hydroxyproline (HP; a protein marker of fibrosis) quantification, liver samples were homogenized in 6 M HCl and hydrolyzed to degrade collagen. The samples were centrifuged, and the hydroxyproline content measured in duplicates in the supernatant, using a colorimetric assay (Quickzyme Biosciences) according to the manufacturer's instructions.
Relative liver hydroxyproline (HP) (μg/mg of liver) at termination. Values expressed as mean of n=12-14+SEM.
Total liver hydroxyproline (HP) (μg/liver) at termination. Values expressed as mean of n=12-14+SEM.

DIO-NASH mice [3] = assay: Fibrosis stage, Sirius red histopathological scoring of pre- and post-biopsies; settings: post- vs pre-study biopsy, trend, p=0.07
Protocol: Three weeks prior to study start, a pre-biopsy was performed to confirm NASH and for study inclusion of NASH-affected mice only. Briefly, mice were anesthetized with isoflurane (2-3%) in 100% oxygen. A small abdominal incision was made in the midline and the left lateral lobe of the liver exposed. A cone shaped wedge of liver tissue (approximately 50 mg) was excised from the distal portion of the lobe and fixated in 10% neutral buffered formalin (4% formaldehyde) for histopathological analyses. The cut surface of the liver was instantly electro-coagulated using bipolar coagulation (ERBE VIO 100 electrosurgical unit). The liver was returned to the abdominal cavity, the abdominal wall sutured, and the skin closed with staplers. For post-operative recovery, mice received carprofen (5 mg/ml-0.01 ml/10 g) administered subcutaneously on the day of operation and on post-operation day 1 and 2. For Sirius red staining, slides were incubated in Weigert's iron hematoxylin, washed in tap water, stained in Picro-Sirius red and washed twice in acidified water. […] For scoring of NAFLD Activity Score (NAS) and fibrosis stage, HE and Sirius red stained liver sections, respectively, were scored by a histopathology specialist as outlined in Table 10 using the clinical criteria outlined by Kleiner et al. (2005). […] Fibrosis stage is evaluated separately from NAS.

[4] = CHS-131 High dose (alone or combined)

| Compound | Relative liver total cholesterol (TC) at termination (DIO-NASH mice [1]; [4]) | Total liver total cholesterol (TC) at termination (DIO-NASH mice [1]; [4]) [mg/liver] | Relative liver hydroxyproline (HP) at termination (DIO-NASH mice [2]; [4]) | Total liver hydroxyproline (HP) at termination (DIO-NASH mice [2]; [4]) [μg/liver] | Fibrosis stage: mice with improvement (DIO-NASH mice [3]) | Relative liver total cholesterol (TC) at termination (DIO-NASH mice [1]; CHS-131 Low dose) | Total liver total cholesterol (TC) at termination (DIO-NASH mice [1]; CHS-131 Low dose) [mg/liver] | Marker of fibrosis hydroxyproline, effect in words (DIO-NASH mice [2]; DIO-NASH mice, 12 weeks of treatment, summary of data) | Improvement of liver hydroxyproline level at termination (marker of fibrosis) (DIO-NASH mice [2]; DIO-NASH mice, compared to DIO mice administered vehicle only, significant) [%] | Relative liver hydroxyproline (HP) at termination (DIO-NASH mice [2]; CHS-131 Low dose) | Total liver hydroxyproline (HP) at termination (DIO-NASH mice [2]; CHS-131 Low dose) [μg/liver] |
| --- | --- | --- | --- | --- | --- | --- | --- | --- | --- | --- | --- |
| CSc1ccc(C(=O)/C=C/c2cc(C)c(OC(C)(C)C(=O)O)c(C)c2)cc1 [Elafibranor, reference compound] | 8.87 mg/g of liver | 38.3 | 0.0389 μg/mg of liver | 164 |  |  |  |  |  |  |  |
| OC[C@H]1O[C@@H](c2ccc(Cl)c(Cc3ccc(O[C@H]4CCOC4)cc3)c2)[C@H](O)[C@@H](O)[C@@H]1O [Empagliflozin, reference compound] | 12.6 mg/g of liver | 43.2 | 0.0747 μg/mg of liver | 233 |  |  |  |  |  |  |  |
| O=S(=O)(Nc1cc(Cl)c(Oc2cnc3ccccc3c2)c(Cl)c1)c1ccc(Cl)cc1Cl [CHS-131] | 12.3 mg/g of liver | 39.2 | 0.0802 μg/mg of liver | 250 | 5/13 | 12.4 mg/g of liver | 39.6 | positive trends for improvement | 30 | 0.0631 μg/mg of liver | 205 |
